Measured values published in patent US10508120B2, “TYK2 inhibitors and uses thereof” (Nimbus Lakshmi, Inc., priority 2017, dated 2019).

Columns and labels:
[1] = molecular target: human TYK2 (JH2domain-pseudokinase) (Homo sapiens (Human), UniProt P29597); assay: TYK2 JH2 Domain Binding Assay (KINOMEscan)
In short: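 Displacement of a DNA-tagged TYK2 JH2 fusion (human, aa G556–D888, HEK293 extract, <0.1 nM) from ligand-coated beads over 1 h at RT; binding buffer PBS/0.05% Tween 20/10 mM DTT/0.1% BSA.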

[2] = molecular target: Tyk2 kinase domain (DH1) (Homo sapiens (Human), UniProt P29597); assay: Tyk2 Radioactive Kinase Assay; assay type: biochemical; conditions: 10 μM compound; 10 μM ATP; read-out: Tyk2 JH1% Inhibition @ 10 μM
In short: (§1)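 Values are single-concentration percent inhibition figures. They were obtained with 10 μM compound in a radioactivity-based kinase assay run separately on each enzyme.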

[3] = molecular target: JAK2 kinase domain (JH1) (Homo sapiens (Human), UniProt O60674); assay: JAK2 Radioactive Kinase Assay; assay type: biochemical; conditions: 10 μM compound; 10 μM ATP; read-out: JAK2 JH1% Inhibition @ 10 μM
In short: as §1

human TYK2 (JH2domain-pseudokinase), sequence (P29597 556-888): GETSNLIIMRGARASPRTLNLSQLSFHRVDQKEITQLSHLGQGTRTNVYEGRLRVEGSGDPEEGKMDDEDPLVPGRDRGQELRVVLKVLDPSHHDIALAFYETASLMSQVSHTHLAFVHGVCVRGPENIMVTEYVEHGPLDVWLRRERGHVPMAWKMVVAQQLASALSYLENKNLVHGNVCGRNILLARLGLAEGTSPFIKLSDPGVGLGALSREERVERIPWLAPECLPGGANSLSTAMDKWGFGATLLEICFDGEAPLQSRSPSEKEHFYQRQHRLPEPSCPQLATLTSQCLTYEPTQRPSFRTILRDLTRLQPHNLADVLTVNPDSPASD
JAK2 kinase domain (JH1), sequence (O60674 849-1124): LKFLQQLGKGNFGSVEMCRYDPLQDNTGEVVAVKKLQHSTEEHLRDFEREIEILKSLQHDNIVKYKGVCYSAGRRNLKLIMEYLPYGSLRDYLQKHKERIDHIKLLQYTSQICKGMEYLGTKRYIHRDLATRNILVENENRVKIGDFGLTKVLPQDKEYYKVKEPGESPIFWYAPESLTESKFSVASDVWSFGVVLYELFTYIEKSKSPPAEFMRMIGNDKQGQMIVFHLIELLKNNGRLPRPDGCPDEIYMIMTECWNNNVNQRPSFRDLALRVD
Tyk2 kinase domain (DH1), sequence (P29597 897-1176): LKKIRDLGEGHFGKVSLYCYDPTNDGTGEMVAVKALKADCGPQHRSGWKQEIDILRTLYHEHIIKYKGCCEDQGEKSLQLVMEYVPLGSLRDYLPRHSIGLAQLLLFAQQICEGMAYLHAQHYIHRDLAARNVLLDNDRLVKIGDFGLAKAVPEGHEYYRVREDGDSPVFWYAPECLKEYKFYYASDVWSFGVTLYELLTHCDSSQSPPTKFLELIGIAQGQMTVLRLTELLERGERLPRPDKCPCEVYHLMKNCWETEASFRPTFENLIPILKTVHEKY

Compound	Kd [1] [nM]	inhibition at 10 µM [2] [%]	inhibition at 10 µM [3] [%]
CNc1cc(Nc2cccn([C@H]3CCC[C@H](O)C3)c2=O)nc2c(C(=O)N[C@@H]3C[C@@H]3F)cnn12 [I-1030]	< 0.2	< 50	< 50
CNc1cc(Nc2cccn(C3CCOCC3)c2=O)nc2c(C(=O)NC[C@H](C)CO)cnn12 [I-1031]	< 0.2	< 50	< 50
CNc1cc(Nc2cccn(C3CCOCC3)c2=O)nc2c(C(=O)NC[C@@H](C)CO)cnn12 [I-1032]	0.2 to 1	< 50	< 50
CNc1cc(Nc2cccn(-c3cccc(F)c3)c2=O)nc2c(C(=O)NC[C@@H](C)CO)cnn12 [I-1033]	< 0.2	< 50	< 50
CNc1cc(Nc2cccn(-c3cccc(F)c3)c2=O)nc2c(C(=O)NC[C@H](C)CO)cnn12 [I-1034]	< 0.2	< 50	< 50
CNc1cc(Nc2cccn(-c3ccccc3F)c2=O)nc2c(C(=O)N[C@@H]3CC[C@@H]3O)cnn12 [I-1036]	0.2 to 1	< 50	< 50
CNc1cc(Nc2cccn([C@@H]3CCCC[C@@H]3OC)c2=O)nc2c(C(=O)N[C@H]3CC[C@@H]3OC)cnn12 [I-1037]	0.2 to 1	< 50	< 50
CNc1cc(Nc2cccn(-c3ccccc3F)c2=O)nc2c(C(=O)N[C@@H]3CC[C@H]3O)cnn12 [I-1039]	< 0.2	< 50	< 50
CNc1cc(Nc2cccn([C@H]3CCCN(CCC#N)C3)c2=O)nc2c(C(=O)N[C@@H]3C[C@@H]3F)cnn12 [I-1040]	0.2 to 1	< 50	< 50
CNc1cc(Nc2cccn([C@@H]3CCCN(CCC#N)C3)c2=O)nc2c(C(=O)N[C@@H]3C[C@@H]3F)cnn12 [I-1041]	0.2 to 1	< 50	< 50
CNc1cc(Nc2cccn([C@@H]3CCC[C@@H](OC)C3)c2=O)nc2c(C(=O)N[C@@H]3C[C@@H]3F)cnn12 [I-1043]	0.2 to 1	< 50	< 50
CNc1cc(Nc2cccn([C@H]3CCCC[C@H]3OC)c2=O)nc2c(C(=O)NC3CC3)cnn12 [I-1044]	0.2 to 1	< 50	< 50
CNc1cc(Nc2cccn([C@H]3CCCC[C@H]3OC)c2=O)nc2c(C(=O)N[C@@H]3C[C@@H]3F)cnn12 [I-1045]	0.2 to 1	< 50	< 50
CNc1cc(Nc2cccn([C@H]3CCCC[C@H]3OC)c2=O)nc2c(C(=O)NCC(C)(C)CO)cnn12 [I-1046]	< 0.2	< 50	< 50
CNc1cc(Nc2cccn([C@H]3CCCC[C@H]3OC)c2=O)nc2c(C(=O)NCC3(CO)CC3)cnn12 [I-1047]	0.2 to 1	< 50	< 50
CNc1cc(Nc2cccn([C@@H]3CCC[C@H](OC)C3)c2=O)nc2c(C(=O)N[C@@H]3CC[C@H]3O)cnn12 [I-1054]	< 0.2	< 50	< 50
CNc1cc(Nc2cccn([C@@H]3CCC[C@H](OC)C3)c2=O)nc2c(C(=O)N[C@H]3CC[C@@H]3O)cnn12 [I-1055]	0.2 to 1	< 50	< 50
CNc1cc(Nc2cccn([C@H]3CCCC[C@H]3O)c2=O)nc2c(C(=O)N[C@H]3CC[C@@H]3OC)cnn12 [I-1058]	0.2 to 1	< 50	< 50
CNc1cc(Nc2cccn([C@H]3C[C@@H]3F)c2=O)nc2c(C(=O)NCC(C)(C)CO)cnn12 [I-1060]	< 0.2	< 50	< 50
CNc1cc(Nc2cccn([C@@H]3CCC[C@@H](O)C3)c2=O)nc2c(C(=O)N[C@H]3CC[C@@H]3OC)cnn12 [I-1064]	< 0.2	< 50	< 50
CNc1cc(-c2cn(C3CCOCC3)c3ncccc23)nc2c(C(=O)N[C@H]3CC[C@@H]3OC)cnn12 [I-1065]	< 0.2	< 50	< 50
CNc1cc(Nc2cc(Cl)cn(C3CCOCC3)c2=O)nc2c(C(=O)N[C@H]3CC[C@H]3O)cnn12 [I-1068]	< 0.2	< 50	< 50
CNc1cc(Nc2cc(Cl)cn(C3CCOCC3)c2=O)nc2c(C(=O)N[C@@H]3CC[C@@H]3O)cnn12 [I-1069]	0.2 to 1	< 50	< 50

Compound	Kd [1] [nM]	inhibition at 10 µM [2] [%]	inhibition at 10 µM [3] [%]
CNc1cc(Nc2cccn(-c3ncc(C)s3)c2=O)nc2c(C(=O)N[C@H]3CC[C@@H]3O)cnn12 [I-1071]	1 to 10	< 50	< 50
CNc1cc(Nc2cccn(-c3ncc(C)s3)c2=O)nc2c(C(=O)N[C@H]3CC[C@H]3O)cnn12 [I-1072]	< 0.2	< 50	< 50
CNc1cc(Nc2cccn(-c3ccccc3F)c2=O)nc2c(C(=O)NC[C@@H](C)CO)cnn12 [I-1076]	< 0.2	< 50	< 50
CNc1cc(Nc2cccn(-c3ccccc3F)c2=O)nc2c(C(=O)NC[C@H](C)CO)cnn12 [I-1077]	0.2 to 1	< 50	< 50
CNc1cc(Nc2cccn(C(C)C)c2=O)nc2c(C(=O)N[C@H]3CCC[C@H](O)C3)cnn12 [I-1078]	< 0.2	< 50	< 50
CNc1cc(Nc2cccn(C(C)C)c2=O)nc2c(C(=O)N[C@@H]3CCC[C@@H](O)C3)cnn12 [I-1079]	0.2 to 1	< 50	< 50
CNc1cc(-c2cn(C3CC3)c3ncccc23)nc2c(C(=O)N[C@H]3CC[C@H]3O)cnn12 [I-1080, 5-(1-cyclopropyl-1H-pyrrolo[2,3-b]pyridin-3-yl)-N-((1S,2R)-2-hydroxycyclobutyl)-7-(methylamino)pyrazolo[1,5-a]pyrimidine-3-carboxamide]	< 0.2	< 50	< 50
CNc1cc(-c2cn(C3CC3)c3ncccc23)nc2c(C(=O)N[C@@H]3CC[C@@H]3O)cnn12 [I-1081, 5-(1-cyclopropyl-1H-pyrrolo[2,3-b]pyridin-3-yl)-N-((1R,2S)-2-hydroxycyclobutyl)-7-(methylamino)pyrazolo[1,5-a]pyrimidine-3-carboxamide]	0.2 to 1	< 50	< 50
CNc1cc(Nc2cccn([C@@H]3CCC[C@H](OC)C3)c2=O)nc2c(C(=O)N[C@H]3CC[C@@H]3OC)cnn12 [I-1083]	1 to 10	< 50	< 50
CNc1cc(Nc2cccn([C@@H]3CCC[C@@H](OC)C3)c2=O)nc2c(C(=O)NCC3(CO)CC3)cnn12 [I-1087]	< 0.2	< 50	< 50
CNc1cc(Nc2cccn([C@@H]3C[C@H]3F)c2=O)nc2c(C(=O)N[C@H]3CC[C@H]3O)cnn12 [I-1089]	< 0.2	< 50	< 50
CNc1cc(Nc2cccn([C@@H]3C[C@H]3F)c2=O)nc2c(C(=O)N[C@@H]3CC[C@H]3O)cnn12 [I-1091]	< 0.2	< 50	< 50
CNc1cc(Nc2cccn([C@H]3C[C@@H]3F)c2=O)nc2c(C(=O)N[C@@H]3CC[C@H]3O)cnn12 [I-1092]	0.2 to 1	< 50	< 50
CNc1cc(Nc2cccn([C@@H]3CCC[C@@H]3O)c2=O)nc2c(C(=O)N[C@H]3CC[C@@H]3OC)cnn12 [I-1100]	0.2 to 1	< 50	< 50
CNc1cc(Nc2cccn([C@H]3CC[C@H]3O)c2=O)nc2c(C(=O)NC3CC3)cnn12 [I-1103]	1 to 10	< 50	< 50
CNc1cc(Nc2cccn([C@@H]3CC[C@@H]3O)c2=O)nc2c(C(=O)NC3CC3)cnn12 [I-1104]	< 0.2	< 50	< 50
CNc1cc(Nc2cccn([C@H]3CC[C@](C)(OC)CC3)c2=O)nc2c(C(=O)N[C@@H]3CC[C@H]3OC)cnn12 [I-1106]	1 to 10	< 50	< 50
CNc1cc(Nc2cccn([C@H]3CC[C@](C)(OC)CC3)c2=O)nc2c(C(=O)N[C@H]3CC[C@@H]3O)cnn12 [I-1108]	< 0.2	< 50	< 50
CNc1cc(Nc2cccn([C@H]3CC[C@]4(CCCO4)CC3)c2=O)nc2c(C(=O)NC3CC3)cnn12 [I-1109]	< 0.2	< 50	< 50
CNc1cc(Nc2cccn([C@@H]3CC[C@@H]3O)c2=O)nc2c(C(=O)N[C@@H]3C[C@@H]3F)cnn12 [I-1110]	< 0.2	< 50	< 50
CNc1cc(-c2cn(C3CCOCC3)c3ncccc23)nc2c(C(=O)N[C@H]3CC[C@H]3O)cnn12 [I-1113]	< 0.2	< 50	< 50
CNc1cc(-c2cn(C3CCOCC3)c3ncccc23)nc2c(C(=O)N[C@@H]3CC[C@@H]3O)cnn12 [I-1114]	0.2 to 1	< 50	< 50
CNc1cc(Nc2cccc3ocnc23)nc2c(C(=O)N[C@H]3CC[C@@H]3OC)cnn12 [I-1115]	1 to 10	< 50	< 50
